Laboratory results published in US20120020958A1, “FIBCD1 FOR THE PREVENTION AND TREATMENT OF DISEASES” (Dansk Universitet, priority 2008, published 2012).
Read-outs that look alike come from different tables or passages of the source.

How the values were obtained:
FIBCD1 ectodomain = target: T1, FIBCD1 ectodomain (Homo sapiens, UniProt Q8N539); assay: ELISA inhibition of binding between FIBCD1 ectodomain and acetylated BSA; conditions: for inhibition of binding of FIBCD1 to acetylated BSA: at a concentration of 50 mM; for IC50: read-out: I50 of the binding between FIBCD1 and acetylated BSA; for I50 relative (relative inhibitor potential): I50 of the best inhibitor divided by I50 of the compound
T1 construct: The V5-His tagged putative ectodomain of FIBCD1, encoding amino acid 54-461, was generated by PCR; made in house; host or cells: HEK293 (Flp-In T-REx), secreted via pSecTag/FRT/V5-His TOPO vector
T1 sequence (Q8N539 54-461): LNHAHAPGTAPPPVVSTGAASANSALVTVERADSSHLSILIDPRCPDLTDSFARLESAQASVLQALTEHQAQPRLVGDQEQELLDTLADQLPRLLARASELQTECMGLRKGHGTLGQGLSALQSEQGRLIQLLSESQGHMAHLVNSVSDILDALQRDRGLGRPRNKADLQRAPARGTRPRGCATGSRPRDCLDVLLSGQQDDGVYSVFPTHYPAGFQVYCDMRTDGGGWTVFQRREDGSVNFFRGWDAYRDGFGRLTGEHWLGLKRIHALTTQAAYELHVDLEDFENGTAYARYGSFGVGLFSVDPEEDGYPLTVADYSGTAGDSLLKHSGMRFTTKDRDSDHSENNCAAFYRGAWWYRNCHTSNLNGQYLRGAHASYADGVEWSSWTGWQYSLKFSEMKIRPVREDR
Experimental: The ligand selectivity of FIBCD1 was investigated by inhibiting the binding of FIBCD1 ectodomain to acetylated BSA coated microtiter plates (FIG. 2G, Table 1).
(§1) An ELISA system was used to evaluate the ability of various acetylated and nonacetylated compounds to inhibit the binding between FIBCD1 ectodomain and acetylated BSA (Sigma). Microtiter plates (NUNC Maxisorp, Denmark) were coated with acetylated BSA (Sigma) or BSA (Sigma) and blocked with TBS/Tw before being incubated with FIBCD1 ectodomain samples diluted in TBS/Tw (5 mM CaCl2). The binding between FIBCD1 and acetylated BSA was also tested in the presence of 10 mM EDTA, 5 mM MnCl2 or 5 mM MgCl2 instead of CaCl2. After incubation overnight at 4° C. and washing, the wells were incubated for 2 h at room temperature with chicken anti-FIBCD1 antibodies diluted 1:1000 in TBS/Tw (5 mM CaCl2). The plates were washed with TBS/Tw (5 mM CaCl2) and incubated for 1 h with alcalic phosphatase-labelled anti-chicken IgY (whole molecule) (Sigma-Aldrich) diluted 1:1500 in TBS/Tw (5 mM CaCl2) followed by washing and developed with 1 mg/ml para-nitrophenylphosphate, disodium salt (PNPP) (Boehringer Mannheim, Germany) in substrate buffer.
The mixtures were incubated overnight in the acetylated BSA coated wells overnight at 4° C. and processed as described above.

FIBCD1 = target: T2, FIBCD1 (Homo sapiens, UniProt Q8N539); assay: ELISA binding of FIBCD1 to coated microtiter plates; conditions: for substitution for calcium in binding to acetylated BSA: 5 mM MnCl2 or 5 mM MgCl2 instead of CaCl2; for binding of FIBCD1 to coated substance: ELISA, microtiter plates coated with the substance
T2 construct: The V5-His tagged putative ectodomain of FIBCD1, encoding amino acid 54-461, was generated by PCR; made in house; host or cells: HEK293 (Flp-In T-REx), secreted via pSecTag/FRT/V5-His TOPO vector
T2 sequence (Q8N539 54-461): T1 sequence (Q8N539 54-461)
Experimental: (A) SDS-PAGE and Western blotting analysis of culture supernatant from HEK293 cells expression FIBCD1 in the non-reduced (lane 1) and reduced (lane 2) state developed with the monoclonal rat anti-FIBCD1 (HG-HYB-12-2). […] (D) Silver stained SDS-PAGE of fractions from (E) in the reduced and unreduced state. (E) Microtiterplates were coated with BSA or NAc-BSA and increasing amounts of FIBCD1 was added in the presence 5 mM CaCl2 or 10 mM EDTA. (F) Microtiterplates were coated with NAc-BSA and 100 ng/ml and FIBCD1 was added in the presence 0-1 mM CaCl2. (G) Microtiterplates were coated with NAc-BSA and increasing amounts of FIBCD1 was added in the presence 5 mM CaCl2, 5 mM MgCl2 or 5 mM MnCl2.
(§2) (A) Microtiter plates were coated with LPS 055, LPS 0111 LPS 026 or NAc-BSA. (B) Microtiterplates were coated with LTA, mannan, peptidoglycan or NAc-BSA and increasing concentrations of FIBCD1 was added. (C) Pull-down assays where 20 μg of the FIBCD1 (the FReD of FIBCD1) or as a positive control 20 μg of wheat germ agglutinin (WGA) was added to 2 mg insoluble chitin, cellulose, zymozane or beta-glucan. […] BSA was used as control. Pellet fractions were analyzed by SDS-PAGE and Coomassie blue staining.
as §1

[1] = system: CHO cells transfected with FIBCD1 cDNA; assay: FIBCD1-mediated endocytosis of acetylated BSA in CHO cells; type: cell-based, Chinese hamster; conditions: for uptake and degradation of 125I labelled acetylated BSA: GlcNAc at 10 mM
Experimental: Degradation was measured, as the cell-mediated increase in of TCA-soluble radioactivity in the growth medium and cell-associated was determined by counting the radioactivity of the cell lysate. (A) CHO cells and (B) CHO/FIBCD1 cells. (C) Effect of lysosomal inhibitors chloroquine and leupeptin (both 100 μM) on endocytosis of NAc-BSA. Values are mean+/−1 SD of triplicate samples. […] Fluorescence microscopy of CHO-FReD (E) and CHO (F) after incubation with Alexa488 acetylated BSA.

[2] = target: T3, FIBCD1 (the FReD of FIBCD1) (Homo sapiens, UniProt Q8N539); assay: Pull-down assay of FIBCD1 (FReD) with insoluble polysaccharides; type: binding; conditions: 20 μg FIBCD1 FReD, 2 mg insoluble substance
T3 construct: 20 μg of the FIBCD1 (the FReD of FIBCD1)
T3 sequence (Q8N539 235-458 limits assumed): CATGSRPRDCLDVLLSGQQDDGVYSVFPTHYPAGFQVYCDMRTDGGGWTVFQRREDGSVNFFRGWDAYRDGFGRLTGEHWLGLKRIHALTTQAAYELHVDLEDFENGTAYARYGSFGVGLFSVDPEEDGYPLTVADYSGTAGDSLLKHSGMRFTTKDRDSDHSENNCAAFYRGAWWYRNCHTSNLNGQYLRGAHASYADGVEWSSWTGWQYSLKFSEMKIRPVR
Experimental: as §2, with “(B)” for “(A) Microtiter plates were coated with LPS 055, LPS 0111 LPS 026 or NAc-BSA. (B)”

[3] = 100 ng/ml FIBCD1 ectodomain, 5 mM CaCl2, N.I. = less than 50% inhibition at 50 mM

CCC(=O)[O-].[Na+] [Propionate, sodium propionate, reference compound]
I50 of the binding between FIBCD1 and acetylated BSA (FIBCD1 ectodomain; [3]): N.I.
inhibition of binding of FIBCD1 to acetylated BSA (FIBCD1 ectodomain): did not inhibit

CC(=O)N[C@@H]1[C@@H](O)[C@@H](O)[C@@H](CO)O[C@@H]1O [N-acetylgalactoseamine]
IC50 (FIBCD1 ectodomain; [3]): 5 mM
I50 relative (relative inhibitor potential) (FIBCD1 ectodomain): 0.4

CC(=O)N[C@@H]1C(O)O[C@H](CO)[C@@H](O)[C@@H]1O (some centres unmarked) [N-acetylmannoseamine, N-acetyl mannosamine]
I50 relative (relative inhibitor potential) (FIBCD1 ectodomain): 1
IC50 (FIBCD1 ectodomain): 2 mM

[Mg] [magnesium]
substitution for calcium in binding to acetylated BSA (FIBCD1): could not

CC(=O)N[C@H]1[C@H]([C@H](O)[C@H](O)CO)OC(O)(C(=O)O)C[C@@H]1O (some centres unmarked) [Sialic acid, N-acetylneuraminic acid]
I50 relative (relative inhibitor potential) (FIBCD1 ectodomain): 1
IC50 (FIBCD1 ectodomain): 2 mM

^125I-labeled NAc-BSA: acetylated BSA labelled with 125I using the chloroamine-T method
time at which cell-associated radioactivity reached a plateau ([1]; CHO/FIBCD1 cells, 37° C.): one
uptake in non-transfected CHO cells [1]: no uptake

β-1,3-glucan
binding of FIBCD1 in pull-down [2]: no binding

Alexa488 labelled acetylated BSA: acetylated BSA coupled with Alexa Fluor 488 C5 maleimide
uptake in CHO cells transfected with FIBCD1 cDNA ([1]; fluorescence microscopy): mediate uptake
uptake in non-transfected CHO cells [1]: no uptake

lipoteichoid acid [LTA]
binding of FIBCD1 to coated substance (FIBCD1): no binding

CC(=O)N[C@@H](C)C(=O)O [N-acetylalanine]
I50 relative (relative inhibitor potential) (FIBCD1 ectodomain): 0.5
IC50 (FIBCD1 ectodomain): 4 mM

CCCC(=O)[O-].[Na+] [Butyrate, sodium butyrate, reference compound]
I50 of the binding between FIBCD1 and acetylated BSA (FIBCD1 ectodomain; [3]): N.I.
inhibition of binding of FIBCD1 to acetylated BSA (FIBCD1 ectodomain): did not inhibit

N[C@H]1C(O)O[C@H](CO)[C@H](O)[C@@H]1O (some centres unmarked) [Galactoseamin, galactosamine, reference compound]
I50 of the binding between FIBCD1 and acetylated BSA (FIBCD1 ectodomain; [3]): N.I.

lipopolysaccharide [LPS]
binding of FIBCD1 to coated substance (FIBCD1): no binding

[Mn+2] [manganese]
substitution for calcium in binding to acetylated BSA (FIBCD1): could substitute for calcium

mannan
binding of FIBCD1 to coated substance (FIBCD1): no binding

N[C@@H]1C(O)O[C@H](CO)[C@@H](O)[C@@H]1O (some centres unmarked) [Mannosamine, mannosamine, reference compound]
I50 of the binding between FIBCD1 and acetylated BSA (FIBCD1 ectodomain; [3]): N.I.

C[C@H](N)C(=O)O [Alanine, L-alanine, reference compound]
I50 of the binding between FIBCD1 and acetylated BSA (FIBCD1 ectodomain; [3]): N.I.

N[C@H]1C(O)O[C@H](CO)[C@@H](O)[C@@H]1O (some centres unmarked) [Glucosamine, glucosamine, reference compound]
I50 of the binding between FIBCD1 and acetylated BSA (FIBCD1 ectodomain; [3]): N.I.

cellulose
binding of FIBCD1 in pull-down [2]: no binding

N-acetyl bovine serum albumin [NAc-BSA]
binding of FIBCD1 to coated substance (FIBCD1): binding
binding of FIBCD1 to coated substance (FIBCD1; listed as acetylated BSA): bound
uptake and degradation of 125I labelled acetylated BSA ([1]; CHO/FIBCD1 cells): inhibited

O=C[C@H](O)[C@@H](O)[C@@H](O)[C@H](O)CO [Galactose, galactose, reference compound]
I50 of the binding between FIBCD1 and acetylated BSA (FIBCD1 ectodomain; [3]): N.I.

[Ca+2].[Cl-].[Cl-] [calcium, calcium chloride]
calcium concentration for optimum binding to acetylated BSA (FIBCD1; 100 ng/ml FIBCD1, 0-1 mM CaCl2): 0.6 mM

peptidoglycan
binding of FIBCD1 to coated substance (FIBCD1): no binding

zymosan
binding of FIBCD1 in pull-down [2]: no binding

CC(=O)OCC[N+](C)(C)C [Acetylcholine, acetyl cholin]
IC50 (FIBCD1 ectodomain): 10 mM

CC(=O)N[C@H]1C(O)O[C@H](CO)[C@@H](O)[C@@H]1O (some centres unmarked) [N-acetylglucosamine, N-acetyl glucosamine]
I50 relative (relative inhibitor potential) (FIBCD1 ectodomain): 0.5
IC50 (FIBCD1 ectodomain): 4 mM
uptake and degradation of 125I labelled acetylated BSA ([1]; CHO/FIBCD1 cells): inhibited
